Measured values reported in patent publication US10703733B2, “MCL-1 inhibitors” (Gilead Sciences, Inc., priority 2018, dated 2020).
Where two headings read alike, the source gives them in different places.

What was measured:
[1] = test system: SKBR3 cells; assay: SKBR3 Cell Viability Assay (CellTiter Glo); assay type: cell-based; conditions: CellTiter Glo luminescence, read-out: MCL-1 CV SKBR3 EC50
Outline: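 Viability read as CellTiter Glo luminescence after 72 h of compound exposure at 37° C./5% CO2, using 6,000 SKBR3 cells per well in McCoy 5A with 10% FBS. Percent inhibition scaled between DMSO wells and 10 μM puromycin wells.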

[2] = molecular target: MCL-1/Bim interaction (recombinant human MCL-1 protein, residues 171-327; biotinylated human Bim peptide, residues 51-76) (Homo sapiens (Human), UniProt Q07820); assay: MCL-1/Bim Binding AlphaLISA Assay; conditions: 0.0625 nM 6xHis-Mcl-1 (171-327), 0.0625 nM biotinylated-Bim peptide
Outline: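 Protein 0.0625 nM + cpd, 1 h; add biotin-Bim 0.0625 nM, 2 h; acceptor beads 1 h; donor beads 1 h; AlphaScreen read. Buffer 20 mM Hepes pH 7.5, 150 mM NaCl, 1 mM DTT.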

MCL-1/Bim interaction (recombinant human MCL-1 protein, residues 171-327; biotinylated human Bim peptide, residues 51-76), sequence (Q07820 171-327): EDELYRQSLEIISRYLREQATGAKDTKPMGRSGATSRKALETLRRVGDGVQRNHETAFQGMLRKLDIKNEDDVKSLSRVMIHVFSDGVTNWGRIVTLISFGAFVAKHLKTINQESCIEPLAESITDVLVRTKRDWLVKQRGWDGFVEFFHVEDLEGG

Row | Structure (SMILES) | EC50 ([1]; Homo sapiens, SK-BR-3, 72 h) | IC50 [2] | EC50 ([1]; 72 hours)
1 | CO[C@H]1/C=C/C[C@H](C)C[S@@](=O)(NC(=O)N2CC(OC(=O)N3CCCCC3)C2)=NC(=O)c2ccc3c(c2)N(C[C@@H]2CC[C@H]21)C[C@@]1(CCCc2cc(Cl)ccc21)CO3 [Example 385] | 222 nM | 0.128 nM | –
2 | CNCCO[C@H]1/C=C/[C@H](OC)[C@@H]2CC[C@H]2CN2C[C@@]3(CCCc4cc(Cl)ccc43)COc3ccc(cc32)C(=O)N=[S@](=O)(NC(=O)c2cn(C)nc2OC)C[C@H]1C [Example 386] | 83.8 nM | 0.048 nM | –
3 | CO[C@H]1/C=C/C[C@H](C)C[S@@](=O)(NC(=O)N2CC(OC(=O)N3CCOCC3)C2)=NC(=O)c2ccc3c(c2)N(C[C@@H]2CC[C@H]21)C[C@@]1(CCCc2cc(Cl)ccc21)CO3 [Example 387] | 162 nM | 0.102 nM | –
4 | COc1nn(C)cc1C(=O)N[S@@]1(=O)=NC(=O)c2ccc3c(c2)N(C[C@@H]2CC[C@H]2[C@@H](OC)/C=C/CCC1)C[C@@]1(CCCc2cc(Cl)ccc21)CO3 [Example 389] | 304 nM | 0.075 nM | –
5 | COC1CN(C(=O)N[S@@]2(=O)=NC(=O)c3ccc4c(c3)N(C[C@@H]3CC[C@H]3[C@@H](OC)/C=C/CCC2)C[C@@]2(CCCc3cc(Cl)ccc32)CO4)C1 [Example 390] | 86.4 nM | 0.061 nM | –
6 | COc1cn(C)nc1C(=O)O[C@H]1/C=C/[C@H](OC)[C@@H]2CC[C@H]2CN2C[C@@]3(CCCc4cc(Cl)ccc43)COc3ccc(cc32)C(=O)N=[S@](=O)(NC(=O)c2cn(C)nc2OC)CC1 [Example 391] | – | 0.702 nM | 4560 nM
7 | COc1nn(C)cc1C(=O)N[S@@]1(=O)=NC(=O)c2ccc3c(c2)N(C[C@@H]2CC[C@H]2[C@@H](OC)/C=C/[C@H](OC)CC1)C[C@@]1(CCCc2cc(Cl)ccc21)CO3 [Example 392] | 142 nM | 0.07 nM | –
8 | COc1nn(C)cc1C(=O)N[S@@]1(=O)=NC(=O)c2ccc3c(c2)N(C[C@@H]2CC[C@H]2[C@@H](OC)/C=C/[C@H](OC(C)=O)[C@H](C)C1)C[C@@]1(CCCc2cc(Cl)ccc21)CO3 [Example 393] | 33.4 nM | 0.062 nM | –
9 | COc1nn(C)cc1C(=O)N[S@@]1(=O)=NC(=O)c2ccc3c(c2)N(C[C@@H]2CC[C@H]2[C@@H](OC)/C=C/[C@@H](OC)CC1)C[C@@]1(CCCc2cc(Cl)ccc21)CO3 [Example 394] | 4750 nM | 1.72 nM | –
10 | COc1nn(C)cc1C(=O)N[S@@]1(=O)=NC(=O)c2ccc3c(c2)N(C[C@@H]2CC[C@H]2[C@@H](OC)/C=C/[C@H](OC(=O)N(C)C)[C@H](C)C1C(=O)N(C)C)C[C@@]1(CCCc2cc(Cl)ccc21)CO3 (stereo partly drawn) [Example 395] | – | 5.27 nM | 6180 nM
11 | CO[C@H]1/C=C/[C@H](OC)[C@H](C)C[S@@](=O)(NC(=O)c2cc(CN3CCN4CCOC[C@@H]4C3)n(C)c2)=NC(=O)c2ccc3c(c2)N(C[C@@H]2CC[C@H]21)C[C@@]1(CCCc2cc(Cl)ccc21)CO3 [Example 399] | 20 nM | 0.07 nM | –
12 | COc1nn(C)cc1C(=O)N[S@@]1(=O)=NC(=O)c2ccc3c(c2)N(C[C@@H]2CC[C@H]2[C@@H](OC)/C=C/[C@H](OC(F)F)[C@H](C)C1)C[C@@]1(CCCc2cc(Cl)ccc21)CO3 [Example 400] | 530 nM | 0.058 nM | –
13 | COc1nn(C)cc1C(=O)N[S@@]1(=O)=NC(=O)c2ccc3c(c2)N(C[C@@H]2CC[C@H]2[C@@H](OC)/C=C/[C@H](OCC(=O)N(C)C)[C@H](C)C1)C[C@@]1(CCCc2cc(Cl)ccc21)CO3 [Example 401] | 118 nM | 0.044 nM | –
14 | COc1nn(C)cc1C(=O)N[S@@]1(=O)=NC(=O)c2ccc3c(c2)N(C[C@@H]2CC[C@H]2[C@@H](OC)/C=C/[C@H](OCc2ccccn2)[C@H](C)C1)C[C@@]1(CCCc2cc(Cl)ccc21)CO3 [Example 402] | 90.2 nM | 0.098 nM | –
15 | COc1nn(C)cc1C(=O)N[S@@]1(=O)=NC(=O)c2ccc3c(c2)N(C[C@@H]2CC[C@H]2[C@@H](OC)/C=C/[C@H](OCCN(C)C)[C@H](C)C1)C[C@@]1(CCCc2cc(Cl)ccc21)CO3 [Example 403] | 13.8 nM | 0.059 nM | –
16 | COc1nn(C)cc1C(=O)N[S@@]1(=O)=NC(=O)c2ccc3c(c2)N(C[C@@H]2CC[C@H]2[C@@H](OC(=O)N(C)C)/C=C/C[C@H](C)C1)C[C@@]1(CCCc2cc(Cl)ccc21)CO3 [Example 404] | 197 nM | 0.092 nM | –
17 | CCn1cc(C(=O)N[S@@]2(=O)=NC(=O)c3ccc4c(c3)N(C[C@@H]3CC[C@H]3[C@@H](OC)/C=C/CCC2)C[C@@]2(CCCc3cc(Cl)ccc32)CO4)cn1 [Example 405] | 196 nM | 0.113 nM | –
18 | CO[C@H]1/C=C\C[C@H](C)[C@@H](C)[S@@](=O)(NC(=O)COC2CCOCC2)=NC(=O)c2ccc3c(c2)N(C[C@@H]2CC[C@H]21)C[C@@]1(CCCc2cc(Cl)ccc21)CO3 [Example 406] | 332 nM | 0.103 nM | –
